Source: paper PMC3551932, “STK295900, a Dual Inhibitor of Topoisomerase 1 and 2, Induces G2 Arrest in the Absence of DNA Damage” (PLoS ONE, 2013)

How the values were obtained:
HeLa cells = test: Immunoblot of cell cycle and DNA damage checkpoint proteins; format: cell-based, human; conditions: 24 h, STK295900 1 or 5 µM, camptothecin 10 µM, etoposide 10 µM
Method: Cells were lysed with cold RIPA buffer (50 mM Tris-HCl pH 8.0, 150 mM NaCl, 1% NP-40, 0.5% sodium deoxycholate, 0.1% SDS) containing freshly added protease inhibitor, phosphatase inhibitor (SIGMA), 1 mM DTT, and 1 mM Na3VO4 on ice for 1 h. Whole cell lysates were centrifuged at 15,000 rpm for 20 min and then the supernatant was transferred into a new tube. An appropriate amount of cell lysate was subjected to SDS-PAGE. Then the resolved proteins were transferred onto a PVDF membrane (Bio-Rad) for immunoblot analyses with specific antibodies. The proteins were detected using chemiluminescence solution (Thermo Scientific, Rockford, IL).
(A) Flow cytometric analysis for cell cycle distribution. HeLa cells were treated with the indicated concentrations of STK295900 for 24 h. Treated cells were then stained with propidium iodide (PI) and processed for cell cycle analysis. The bar graph represents the mean percentage of each cell cycle phase ± SD from three independent experiments. * = p<0.05 versus the respective G1, S, or G2/M phase of DMSO-treated cells. (B) Mitotic index of STK295900. HeLa cells were treated with the indicated concentrations of STK295900 for 24 h. Cells were then stained with Hoechst 33342 and mitotic cells were counted. […] (C) Cell cycle related proteins expression. […] Treated cells were lysed and subjected to immunoblot analyses with antibodies against cyclin A, cyclin B1, phospho-Histone H3 (S10), and Histone H3. β-actin was used as a loading control.
(A) G2/M transition regulated proteins expression. […] GAPDH was used as a loading control. (B) DNA damage-checkpoint related proteins. […] Images were analyzed on a fluorescence microscope.

HL-60 cells = test: Cell growth inhibition assay, HL-60; format: cell-based; conditions: Homo sapiens, 96 h; Table 1; HL-60, leukemia; growth up to 4 days
Source text: Human epitheloid cervical carcinoma HeLa cells, human breast adenocarcinoma MCF7 and MDA-MB-231cells, human hepatocellular carcinoma HepG2 cells, human colon adenocarcinoma HT-29 cells, and human colorectal carcinoma HCT-116 cells were purchased from ATCC® and maintained in DMEM medium. Human prostate carcinoma PC-3 cells (purchased from ATCC®), human gastric carcinoma SNU-484 and SNU-601(obtained from Korean Cell Line Bank (KCLB)), human leukemia K-562 and HL-60 cells (purchased from ATCC®), immortalized human prostate epithelial 267B1cells, and immortalized human embryonic lung fibroblast MRC5CV1 cells were maintained in RPMI 1640 medium whereas immortalized retinal pigment epithelial hTERT RPE-1 cells (purchased from ATCC®) were maintained in DMEM/F12 medium. All cell lines were cultured in media supplemented with 10% fetal bovine serum, 100 U/ml penicillin, and […] streptomycin at 37°C in a 5% CO2 incubator.
Cells were seeded at the appropriate amount (1–2×10^3 cells) in triplicate in 96-well plates for 24 h and then treated with various concentrations of STK295900. Cell growth was determined by using EZ-CyTox cell viability assay kit (Daeil Lab. Service, Seoul, Korea). Ten microliters of WST solution were added to the treated cells at 24, 48, 72, and 96 h. Cells were further incubated at 37°C for 2 h and the absorbance was measured at 450 nm.

Nc1ccc(-c2nc3ccc(-c4ccc5nc(-c6ccc(N)cc6)[nH]c5c4)cc3[nH]2)cc1 [STK295900, 4,4′-(3H,3′H-5,5′-bibenzimidazole-2,2′-diyl)dianiline]
p53 and p21 levels (HeLa cells): did not induce upregulation of p53 but marginally affected p21 level
phosphorylation-dependent activation of ATM (S1981), ATR (S428), Chk1 (S345), and Chk2 (T68) (HeLa cells): no increase in phosphorylations of ATM, ATR, Chk1, and Chk1
Phosphorylation of Cdk1 at T161 (HeLa cells; nocodazole 200 ng/ml): dose-dependent increase
Wee1 and Cdc25C levels (HeLa cells; nocodazole 200 ng/ml): no change in Wee1 and Cdc25C levels
cyclin A and cyclin B1 levels (HeLa cells; nocodazole 200 ng/ml): accumulations of cyclin A and cyclin B1
inhibitory phosphorylation of Cdk1 (T14 and Y15) (HeLa cells; nocodazole 200 ng/ml): dose-dependent increase
IC50 (HL-60 cells): 0.5 µM
